Assay results reported in PubChem BioAssay AID330 (DTP/NCI, 2004).
“And” between values parts separate entries of the source, which are not always exact repeats. Identical values can stand only once. Inconclusive results and toxic doses are left out. Rule for the calls: active = survival T/C of 150% or more; inactive = T/C below 125% in these data.

Test system: P388 leukemia ip, CD2F1 mice, survival T/C
Experiment: NCI In Vivo Anticancer Drug Screen. Data for tumor model P388 Leukemia (intraperitoneal) in CD2F1 (CDF1) mice
Conditions: endpoint: median survival time, higher = longer survival
Procedure, shortened: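 Mice carrying the transplanted tumor received test compound or vehicle. Survival was recorded in each group, and the value is the treated-group measurement divided by that of the vehicle-treated control group.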

[1] = dose: 50.0 mg/kg/injection, schedule: Q01DX005 (ip), vehicle: saline
[2] = dose: 100.0 mg/kg/injection, schedule: Q01DX005 (ip), vehicle: saline
[3] = dose: 200.0 mg/kg/injection, schedule: Q01DX005 (ip), vehicle: saline
[4] = dose: 7.5 mg/kg/injection, schedule: Q01DX005 (ip), vehicle: saline with Tween-80
[5] = dose: 15.0 mg/kg/injection, schedule: Q01DX005 (ip), vehicle: saline with Tween-80
[6] = dose: 30.0 mg/kg/injection, schedule: Q01DX005 (ip), vehicle: saline with Tween-80
[7] = dose: 60.0 mg/kg/injection, schedule: Q01DX005 (ip), vehicle: saline with Tween-80
[8] = dose: 120.0 mg/kg/injection, schedule: Q01DX005 (ip), vehicle: saline with Tween-80
[9] = dose: 6.25 mg/kg/injection, schedule: Q01DX009 (ip), vehicle: saline with Tween-80
[10] = dose: 12.5 mg/kg/injection, schedule: Q01DX009 (ip), vehicle: saline with Tween-80
[11] = dose: 25.0 mg/kg/injection, schedule: Q01DX009 (ip), vehicle: saline with Tween-80
[12] = dose: 100.0 mg/kg/injection, schedule: Q01DX009 (ip), vehicle: saline with Tween-80
[13] = dose: 200.0 mg/kg/injection, schedule: Q01DX009 (ip), vehicle: saline with Tween-80
[14] = dose: 50.0 mg/kg/injection, schedule: Q01DX009 (ip), vehicle: saline with Tween-80
[15] = dose: 240.0 mg/kg/injection, schedule: Q01DX005 (ip), vehicle: saline with Tween-80
[16] = dose: 50.0 mg/kg/injection, schedule: Q01DX009 (ip), vehicle: saline
[17] = dose: 100.0 mg/kg/injection, schedule: Q01DX009 (ip), vehicle: saline
[18] = dose: 200.0 mg/kg/injection, schedule: Q01DX009 (ip), vehicle: saline

Measured: T/C

CCN(CC)c1ccc(C(NCC2CCCCO2)C(Cl)(Cl)Cl)cc1 (stereo unspecified)
inactive: [1] 117 % of control | [2] 102 % of control | [3] 100 % of control

CC(=O)OC(C)C1CC2C=C(C(N)=O)C1N(Cc1ccccc1)C2 (stereo unspecified)
inactive: dose: 8.75 mg/kg/injection, schedule: Q01DX005 (ip), vehicle: Klucel (hydroxypropylcellulose) (HPC) 97 % of control | dose: 17.5 mg/kg/injection, schedule: Q01DX005 (ip), vehicle: Klucel (hydroxypropylcellulose) (HPC) 93 % of control | dose: 35.0 mg/kg/injection, schedule: Q01DX005 (ip), vehicle: Klucel (hydroxypropylcellulose) (HPC) 97 % of control

CC(=O)OCC(COC(C)=O)=C1N=C(c2ccccc2)OC1=O
inactive: dose: 100.0 mg/kg/injection, schedule: Q04DX003 (ip), vehicle: saline with Tween-80 100 % of control | dose: 200.0 mg/kg/injection, schedule: Q04DX003 (ip), vehicle: saline with Tween-80 100 % of control | dose: 400.0 mg/kg/injection, schedule: Q04DX003 (ip), vehicle: saline with Tween-80 100 % of control

NNC(=O)c1oc2ccccc2c1CN(CCO)CCO
inactive: dose: 50.0 mg/kg/injection, schedule: Q01DX005 (ip), vehicle: saline with Tween-80 102 % of control | dose: 100.0 mg/kg/injection, schedule: Q01DX005 (ip), vehicle: saline with Tween-80 98 % of control | dose: 200.0 mg/kg/injection, schedule: Q01DX005 (ip), vehicle: saline with Tween-80 107 % of control

[Cu+2].[O-]/N=C/c1cccc(O)c1[O-].[O-]/N=C/c1cccc(O)c1[O-]
inactive: dose: 3.75 mg/kg/injection, schedule: Q01DX005 (ip), vehicle: saline with Tween-80 98 % of control | [4] 100 % of control | [5] 99 % of control and 104 % of control | [6] 102 % of control | [7] 99 % of control | [8] 92 % of control

Cc1ccc(S(=O)c2ccccc2)c(C(O)(C(F)(F)F)C(F)(F)F)c1 (stereo unspecified)
inactive: dose: 100.0 mg/kg/injection, schedule: Q04DX003 (ip), vehicle: Klucel (hydroxypropylcellulose) (HPC) 91 % of control | dose: 200.0 mg/kg/injection, schedule: Q04DX003 (ip), vehicle: Klucel (hydroxypropylcellulose) (HPC) 93 % of control | dose: 400.0 mg/kg/injection, schedule: Q04DX003 (ip), vehicle: Klucel (hydroxypropylcellulose) (HPC) 94 % of control

O=C(Nc1ccc(Br)cn1)c1sc2ccccc2c1Cl
inactive: [9] 99 % of control | [10] 98 % of control | [11] 99 % of control | [12] 92 % of control | [13] 87 % of control

CCCCNc1ccc(-c2c(N)nc(N)nc2CC)cc1N
inactive: dose: 100.0 mg/kg/injection, schedule: Q01DX001 (ip), vehicle: Klucel (hydroxypropylcellulose) (HPC) 101 % of control | dose: 200.0 mg/kg/injection, schedule: Q01DX001 (ip), vehicle: Klucel (hydroxypropylcellulose) (HPC) 93 % of control | dose: 400.0 mg/kg/injection, schedule: Q01DX001 (ip), vehicle: Klucel (hydroxypropylcellulose) (HPC) 94 % of control

O=[N+]([O-])c1cnc(Sc2ncc([N+](=O)[O-])cn2)nc1
inactive: dose: 60.0 mg/kg/injection, schedule: Q01DX005 (ip), vehicle: saline 99 % of control | dose: 120.0 mg/kg/injection, schedule: Q01DX005 (ip), vehicle: saline 102 % of control | dose: 240.0 mg/kg/injection, schedule: Q01DX005 (ip), vehicle: saline 99 % of control

COc1ccc(C(c2cc(C(C)(C)C)cc(C(C)(C)C)c2O)N2CCOCC2)cc1 (stereo unspecified)
inactive: dose: 50.0 mg/kg/injection, schedule: Q01DX005 (ip), vehicle: distilled water + alcohol 99 % of control | dose: 100.0 mg/kg/injection, schedule: Q01DX005 (ip), vehicle: distilled water + alcohol 103 % of control | dose: 200.0 mg/kg/injection, schedule: Q01DX005 (ip), vehicle: distilled water + alcohol 99 % of control

NS(=O)(=O)/C(Br)=C/c1ccccc1
inactive: [14] 90 % of control | [12] 118 % of control | [13] 98 % of control

Cc1cc(OCCCCOc2ccc(C#N)cc2)ccc1[N+](=O)[O-]
inactive: [7] 96 % of control | [8] 90 % of control | [15] 88 % of control

COc1ccccc1CC(C)N (stereo unspecified)
inactive: dose: 20.0 mg/kg/injection, schedule: Q04DX003 (ip), vehicle: saline 110 % of control | dose: 40.0 mg/kg/injection, schedule: Q04DX003 (ip), vehicle: saline 105 % of control | dose: 80.0 mg/kg/injection, schedule: Q04DX003 (ip), vehicle: saline 105 % of control

CC12CC3(C)CC(C(Cl)C(=O)O)(C1)CC(C(Cl)C(=O)O)(C2)C3 (stereo unspecified)
inactive: [14] 103 % of control | [12] 100 % of control | [13] 107 % of control

S=C(Nc1ccc(N=Nc2ccccc2)cc1)SCc1ccc(Cl)cc1
inactive: [16] 97 % of control | [17] 103 % of control | [18] 100 % of control | dose: 200.0 mg/kg/injection, schedule: Q01DX009 (ip), vehicle: suspension in saline 93 % of control

O=C1C(Br)=Cc2cccc3cccc1c23
inactive: [11] 100 % of control | [14] 100 % of control | [12] 100 % of control

Cc1ccc2c(c1)nc(Cl)n2Cc1ccccc1
inactive: dose: 50.0 mg/kg/injection, schedule: Q01DX005 (ip), vehicle: Klucel (hydroxypropylcellulose) (HPC) 100 % of control | dose: 100.0 mg/kg/injection, schedule: Q01DX005 (ip), vehicle: Klucel (hydroxypropylcellulose) (HPC) 102 % of control | dose: 200.0 mg/kg/injection, schedule: Q01DX005 (ip), vehicle: Klucel (hydroxypropylcellulose) (HPC) 102 % of control

[CH3][Ge]([CH3])([CH3])/[C](=[C](\c1ccccc1)[Ge]([CH3])([CH3])[CH3])c1ccccc1
inactive: [16] 106 % of control | [17] 92 % of control | [18] 93 % of control

Cc1ccc(S(=O)(=O)/N=[Se](\C)c2ccccc2)cc1 (stereo unspecified)
inactive: dose: 0.79 mg/kg/injection, schedule: Q01DX009 (ip), vehicle: saline 95 % of control | dose: 1.56 mg/kg/injection, schedule: Q01DX009 (ip), vehicle: saline 97 % of control | dose: 3.12 mg/kg/injection, schedule: Q01DX009 (ip), vehicle: saline 93 % of control and 97 % of control | [10] 96 % of control | [11] 96 % of control | [14] 108 % of control | [16] 114 % of control

CC1(C)CC(=O)C=C(NCCO)C1
inactive: [1] 96 % of control | [2] 91 % of control | [3] 96 % of control

CCC(C)N(C(=O)c1ccccc1)c1ccccc1 (stereo unspecified)
inactive: dose: 12.5 mg/kg/injection, schedule: Q01DX009 (ip), vehicle: other 99 % of control and 106 % of control | dose: 12.5 mg/kg/injection, schedule: Q01DX009 (ip), vehicle: saline + Tween-80 + alcohol 101 % of control | dose: 25.0 mg/kg/injection, schedule: Q01DX009 (ip), vehicle: other 100 % of control and 102 % of control | dose: 25.0 mg/kg/injection, schedule: Q01DX009 (ip), vehicle: saline + Tween-80 + alcohol 104 % of control | dose: 50.0 mg/kg/injection, schedule: Q01DX009 (ip), vehicle: other 102 % of control | dose: 50.0 mg/kg/injection, schedule: Q01DX009 (ip), vehicle: saline + Tween-80 + alcohol 106 % of control

Cc1c2ccncc2c(C)c2c1[nH]c1ccc(-c3ccccc3)cc12
inactive: dose: 20.0 mg/kg/injection, schedule: Q01DX001 (ip), vehicle: saline with Tween-80 102 % of control | dose: 40.0 mg/kg/injection, schedule: Q01DX001 (ip), vehicle: saline with Tween-80 100 % of control | dose: 80.0 mg/kg/injection, schedule: Q01DX001 (ip), vehicle: saline with Tween-80 99 % of control

O=c1[nH]nc(-c2ccccc2)c2c1[nH]c1ccccc12
inactive: [7] 93 % of control | [8] 96 % of control | [15] 86 % of control

CCCCCCCCCCCCS(=O)(=O)O
inactive: dose: 3.12 mg/kg/injection, schedule: Q01DX009 (ip), vehicle: saline with Tween-80 119 % of control | [9] 111 % of control and 119 % of control | [10] 110 % of control and 112 % of control

O=C(CSc1nnc(-c2ccc(Cl)cc2)s1)Nc1nccs1
inactive: [7] 89 % of control | [8] 89 % of control | [15] 89 % of control

CN1C(=O)CC2(C)C1=CCc1scnc12 (stereo unspecified)
inactive: [4] 94 % of control | [5] 99 % of control | [6] 99 % of control
